These results are taken from ChEMBL document CHEMBL4420076, “Amylin and calcitonin receptor agonist” (2017).

pEC50, pIC50: −log10 of the molar value. Numbered stars: 1 amine (or outer) side, 2 acyl side, 3 side chain; on linkers, the order of the positions; unused ones are H or OH. Square brackets hold non-standard residues; d marks the D form. Peptide text beside a SMILES is read from it. * marks the point of attachment. C20 diacid = O=C(O)CCCCCCCCCCCCCCCCCCC(=O)*; γGlu = O=C(O)[C@H](CCC(=O)[*:2])N[*:1]; AEEA = NCCOCCOCC(=O)O

Data set [1] is described as follows: Solubility in 100 mM bistrispropane buffer at pH 7.5 incubated for 18 hrs by UPLC analysis. The data set is classed as physicochemical.
Data set [2] is described as follows: Stability in pH 7.5 buffer assessed as compound recovery at 1 uM by Thioflavin T based fluorescence assay. The data set is classed as physicochemical. To be noted: read-out: Drug recovery.
The test system of data set [3] is Rattus norvegicus. Briefly: Reduction in food intake in Sprague-Dawley rat at 3 nmol/kg measured 24 to 48 hrs post dose relative to control. The class given is functional. Also on record: scale not given: the % may be the effect or the level left.
Data set [4] has as its system Rattus norvegicus. Briefly: Reduction in food intake in Sprague-Dawley rat at 3 nmol/kg measured 0 to 24 hrs post dose relative to control. The class given is functional. More on the design: scale not given: the % may be the effect or the level left.
Data set [5] deals with T1, Calcitonin receptor (Homo sapiens, UniProt P30988).
T1 sequence (P30988 whole entry): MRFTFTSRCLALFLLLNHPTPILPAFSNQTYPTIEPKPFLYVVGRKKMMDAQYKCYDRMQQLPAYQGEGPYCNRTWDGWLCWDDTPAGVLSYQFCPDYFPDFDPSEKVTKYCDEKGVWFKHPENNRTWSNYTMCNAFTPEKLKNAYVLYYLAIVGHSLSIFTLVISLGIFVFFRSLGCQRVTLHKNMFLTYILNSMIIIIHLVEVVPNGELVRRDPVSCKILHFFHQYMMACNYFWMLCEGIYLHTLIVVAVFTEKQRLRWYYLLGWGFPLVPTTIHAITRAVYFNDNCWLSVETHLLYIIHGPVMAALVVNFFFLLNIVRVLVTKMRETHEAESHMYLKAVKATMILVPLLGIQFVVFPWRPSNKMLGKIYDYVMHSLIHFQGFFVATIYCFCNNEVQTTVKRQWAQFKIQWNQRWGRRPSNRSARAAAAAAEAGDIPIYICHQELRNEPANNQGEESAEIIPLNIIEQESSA
Briefly: Agonist activity at human calcitonin receptor expressed in BHK570 cells assessed as increase in intracellular cAMP concentration incubated for 3 hrs in absence of albumin by CRE luciferase reporter gene assay. The class given is functional, cell-based. In general terms: In a reporter assay the amount or activity of a reporter protein is the signal.

Data set [6] can be described thus: Solubility in 100 mM glycylglycine buffer at pH 3.0 incubated for 18 hrs by UPLC analysis. The data set is classed as physicochemical.
In data set [7] the target is T2, Amylin receptor AMY3; CALCR/RAMP3 (Homo sapiens, UniProt O60896+P30988).
T2 sequence (P30988 whole entry): T1 sequence (P30988 whole entry)
T2 sequence (O60896 whole entry): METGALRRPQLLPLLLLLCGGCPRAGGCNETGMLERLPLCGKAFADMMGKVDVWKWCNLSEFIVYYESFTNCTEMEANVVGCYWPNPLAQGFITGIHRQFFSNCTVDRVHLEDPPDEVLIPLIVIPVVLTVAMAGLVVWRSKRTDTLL
Briefly: Displacement of [125I]-labeled rat amylin from human amylin receptor expressed in BHK570 cell membranes co-expressing RAMP3 incubated for 120 mins by scintillation proximity assay.

The nature of data set [8]: Solubility in 100 mM bistrispropane buffer at pH 7.0 incubated for 18 hrs by UPLC analysis. The data set is classed as physicochemical.
Data set [9] addresses T3, Amylin receptor AMY3; CALCR/RAMP3 (Rattus norvegicus, UniProt P32214+Q9JJ73).
T3 sequence (P32214 whole entry): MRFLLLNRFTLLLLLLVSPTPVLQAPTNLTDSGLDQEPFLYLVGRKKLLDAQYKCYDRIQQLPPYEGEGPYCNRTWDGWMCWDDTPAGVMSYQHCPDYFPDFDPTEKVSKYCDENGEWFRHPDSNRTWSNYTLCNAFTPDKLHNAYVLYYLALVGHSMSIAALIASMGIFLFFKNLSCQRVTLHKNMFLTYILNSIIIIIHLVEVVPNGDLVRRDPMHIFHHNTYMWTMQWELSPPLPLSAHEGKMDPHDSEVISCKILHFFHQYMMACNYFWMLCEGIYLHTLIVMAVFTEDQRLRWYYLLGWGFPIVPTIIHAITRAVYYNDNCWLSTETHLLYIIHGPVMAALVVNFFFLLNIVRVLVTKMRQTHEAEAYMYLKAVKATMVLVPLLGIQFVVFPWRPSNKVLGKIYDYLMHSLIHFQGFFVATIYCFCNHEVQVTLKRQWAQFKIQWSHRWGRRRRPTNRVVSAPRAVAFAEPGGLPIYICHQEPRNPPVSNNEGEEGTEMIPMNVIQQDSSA
T3 sequence (Q9JJ73 whole entry): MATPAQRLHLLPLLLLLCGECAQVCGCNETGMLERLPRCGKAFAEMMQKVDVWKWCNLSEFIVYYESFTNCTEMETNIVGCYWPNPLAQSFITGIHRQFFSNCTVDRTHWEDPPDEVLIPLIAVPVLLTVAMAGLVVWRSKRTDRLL
Briefly: Displacement of [125I]-labeled rat amylin from rat amylin receptor expressed in BHK tkts13 cell membranes co-expressing RAMP3 incubated for 120 mins by scintillation proximity assay.

A short description of data set [10]: Stability in pH 7.5 buffer assessed as lag time for fibril formation at 1 uM by Thioflavin T based fluorescence assay. The data set is classed as physicochemical. To be noted: pH 7.5, 1 µM.
Data set [11] has as its target T1, Calcitonin receptor. The experiment in a line: Agonist activity at human calcitonin receptor expressed in BHK570 cells assessed as increase in intracellular cAMP concentration incubated for 3 hrs in presence of 10% FBS by CRE luciferase reporter gene assay. The data set is classed as functional, cell-based.
Data set [12] in a line: Solubility in 100 mM glycylglycine buffer at pH 4.0 incubated for 18 hrs by UPLC analysis. The data set is classed as physicochemical.
Data set [13] in a line: Solubility in 100 mM bistrispropane buffer at pH 6.5 incubated for 18 hrs by UPLC analysis. The class given is physicochemical.
The target in data set [14] is T2, Amylin receptor AMY3; CALCR/RAMP3. Briefly: Agonist activity at human amylin receptor expressed in BHK570 cells co-expressing RAMP3 assessed as increase in intracellular cAMP concentration incubated for 3 hrs in presence of 10% FBS by CRE luciferase reporter gene assay. The class given is functional, cell-based.
The nature of data set [15]: Solubility in 100 mM bistrispropane buffer at pH 6.0 incubated for 18 hrs by UPLC analysis. The data set is classed as physicochemical.
Data set [16] in a line: Solubility in 100 mM bistrispropane buffer at pH 8.0 incubated for 18 hrs by UPLC analysis. The data set is classed as physicochemical.
Data set [17] addresses T2, Amylin receptor AMY3; CALCR/RAMP3. The experiment in a line: Agonist activity at human amylin receptor expressed in BHK570 cells co-expressing RAMP3 assessed as increase in intracellular cAMP concentration incubated for 3 hrs in absence of albumin by CRE luciferase reporter gene assay. The data set is classed as functional, cell-based.
Data set [18] can be described thus: Solubility in 100 mM glycylglycine buffer at pH 5.0 incubated for 18 hrs by UPLC analysis. The data set is classed as physicochemical.
Data set [19] addresses T1, Calcitonin receptor. Briefly: Displacement of [125I]-labeled human calcitonin from human calcitonin receptor expressed in BHK tkts13 cell membranes incubated for 1 hr by scintillation proximity assay. (In a radioligand displacement assay an active substance lowers the binding of a labelled ligand.)

Broadly, the solubility is how much of the substance goes into solution per volume. By pEC50 is commonly meant the EC50 on a negative log10 scale, so that one unit is a factor of ten. Broadly, the pIC50 is −log10 of the IC50, conventionally taken in molar units. Consider `CC(C)C[C@H](NC(=O)CNC(=O)[C@H](CO)NC(=O)[C@H](C)NC(=O)COCCOCCNC(=O)COCCOCCNC(=O)CC[C@H](NC(=O)CCCCCCCCCCCCCCCCCCC(=O)O)C(=O)O)C(=O)N[C@@H](CO)C(=O)N[C@H](C(=O)N[C@@H](C)C(=O)N[C@H](C(=O)N[C@@H](CC(C)C)C(=O)NCC(=O)N[C@@H](CCCNC(=N)N)C(=O)N[C@@H](CC(C)C)C(=O)N[C@@H](CO)C(=O)N[C@@H](CCC(N)=O)C(=O)N[C@@H](CCC(=O)O)C(=O)N[C@@H](CC(C)C)C(=O)N[C@@H](Cc1cnc[nH]1)C(=O)N[C@@H](CCC(=O)O)C(=O)N[C@@H](CC(C)C)C(=O)N[C@@H](CCC(N)=O)C(=O)N[C@H](C(=O)N[C@@H](Cc1ccc(O)cc1)C(=O)N1CCC[C@H]1C(=O)N[C@@H](CCCNC(=N)N)C(=O)N[C@H](C(=O)N[C@@H](CCC(=O)O)C(=O)N[C@H](C(=O)NCC(=O)N[C@@H](CO)C(=O)NCC(=O)N[C@H](C(=O)N[C@@H](Cc1ccc(O)cc1)C(N)=O)[C@@H](C)O)[C@@H](C)O)[C@@H](C)O)[C@@H](C)O)C(C)C)[C@@H](C)O`, for which the solubility at 18 h in data set [1], in data set [6], in data set [8], in data set [12], in data set [13] and in data set [15] was not below 200 µM each time. The compound also came in with a solubility at 18 h in [16] not below 200 µM. Also, the remaining at 1 µM in data set [2] was found to be 100%. The Activity with Rattus norvegicus [3] came to 19%; with Rattus norvegicus [4], 22%. Also, the pEC50 at Calcitonin receptor [5] was 10.28; at Calcitonin receptor [11], 10.17; in data set [14], 9.91. Moreover, the pIC50 in data set [7] is 9.78; in data set [9] it was 10.54. In [10], the Time is more than 45 h.
In the case of `CC(C)C[C@H](NC(=O)[C@H](C)NC(=O)[C@H](C)NC(=O)[C@@H](NC(=O)[C@H](CO)NC(=O)[C@H](CC(C)C)NC(=O)[C@H](CCC(=O)O)NC(=O)[C@H](CO)NC(=O)[C@H](C)NC(=O)COCCOCCNC(=O)COCCOCCNC(=O)CC[C@H](NC(=O)CCCCCCCCCCCCCCCCCCC(=O)O)C(=O)O)[C@@H](C)O)C(=O)NCC(=O)N[C@@H](CCCNC(=N)N)C(=O)N[C@@H](CC(C)C)C(=O)N[C@@H](CO)C(=O)N[C@@H](C)C(=O)N[C@@H](CCC(=O)O)C(=O)N[C@@H](CC(C)C)C(=O)N[C@@H](Cc1cnc[nH]1)C(=O)N[C@@H](CCC(=O)O)C(=O)N[C@@H](CC(C)C)C(=O)N[C@@H](C)C(=O)N[C@H](C(=O)N[C@@H](CC(C)C)C(=O)N1CCC[C@H]1C(=O)N[C@@H](CCCNC(=N)N)C(=O)N[C@H](C(=O)N[C@@H](CCC(=O)O)C(=O)N[C@H](C(=O)NCC(=O)N[C@@H](CO)C(=O)NCC(=O)N[C@@H](CO)C(=O)N1CCC[C@H]1C(N)=O)[C@@H](C)O)[C@@H](C)O)[C@@H](C)O` ({C20 diacid-γGlu-AEEA-AEEA}-ASELSTAALGRLSAELHELATLPRTETGSGSP-NH2), the solubility at 18 h in data set [1], in [6], in data set [18], in data set [8], in data set [12] and in data set [13] was not below 200 µM throughout. Also, the solubility at 18 h in data set [15] and in [16] was not below 200 µM each time. The pEC50 in [17] is 10.77; at Calcitonin receptor [5], 10.92; on Calcitonin receptor [11] it was 10.46; in [14] it was 10.17. In addition, in data set [2], the remaining at 1 µM stood at 100%. For the same compound, the pIC50 is 9.80 in data set [7] and 10.30 at Calcitonin receptor [19]. The Time in data set [10] was more than 45 h.
On to `CC(C)C[C@H](NC(=O)[C@H](C)NC(=O)[C@H](C)NC(=O)[C@@H](NC(=O)[C@H](CO)NC(=O)[C@H](CC(C)C)NC(=O)[C@H](CCC(=O)O)NC(=O)[C@H](CO)NC(=O)[C@H](C)NC(=O)CC[C@H](NC(=O)CCCCCCCCCCCCCCCCCCC(=O)O)C(=O)O)[C@@H](C)O)C(=O)NCC(=O)N[C@@H](CCCNC(=N)N)C(=O)N[C@@H](CC(C)C)C(=O)N[C@@H](CO)C(=O)N[C@H](CCC(=O)O)C(=O)N[C@@H](CCC(=O)O)C(=O)N[C@@H](CC(C)C)C(=O)N[C@@H](Cc1cnc[nH]1)C(=O)N[C@@H](CCC(=O)O)C(=O)N[C@@H](CC(C)C)C(=O)N[C@@H](C)C(=O)N[C@H](C(=O)N[C@@H](CC(C)C)C(=O)N1CCC[C@H]1C(=O)N[C@@H](CCCNC(=N)N)C(=O)N[C@H](C(=O)N[C@@H](CCC(=O)O)C(=O)N[C@H](C(=O)NCC(=O)N[C@@H](CO)C(=O)NCC(=O)N[C@@H](CO)C(=O)N1CCC[C@H]1C(N)=O)[C@@H](C)O)[C@@H](C)O)[C@@H](C)O` ({C20 diacid-γGlu}-ASELSTAALGRLS[dE]ELHELATLPRTETGSGSP-NH2), for which the solubility at 18 h in data set [1], in data set [6], in [18], in data set [8], in data set [12] and in [13] was not below 200 µM each time. Moreover, the solubility at 18 h in [15] and in [16] was not below 200 µM throughout. For the same compound, the pEC50 was 10.70 in [17], 10.85 at Calcitonin receptor [5], 10.64 on Calcitonin receptor [11] and 10.03 in data set [14]. Further, the results for the pIC50 (in data set [7]; at Calcitonin receptor [19]) were 10.54 and 10.66, respectively.
